Like-named read-outs stand apart in the source and are kept apart here.
Columns and labels:
[1] = system: H1N1 (rgA/WSN/33) WT; conditions: cited from earlier work
[2] = system: H3N2 (rgA/Victoria/3/75) WT; conditions: cited from earlier work
[3] = BALB/c, mouse, in vivo; for C24 (plasma concentration at 24 h): sc
[4] = system: H3N2 (rgA/Victoria/3/75) WT; conditions: cited from earlier work; remark: listed apart in the source
[5] = system: H1N1pdm09.WT; conditions: mouse, in vivo
[6] = hamster, in vivo, sc
[7] = system: H1N1pdm09 (A/Osaka/129/2009) WT; assay: microbe, parasite or virus in culture; format: cell-based; conditions: Influenza A virus, read-out: EC50 Mean
[8] = system: H1N1 (rgA/WSN/33) WT; conditions: cited from earlier work; remark: listed apart in the source

## CCC(CC)O[C@@H]1C=C(C(=O)O)C[C@H](N)[C@H]1NC(C)=O [oseltamivir acid]
[1]
  IC50: 0.8 nM
[2]
  IC50: 0.13 nM

## O=C1c2c(O)c(=O)ccn2N([C@@H]2c3ccccc3SCc3c2ccc(F)c3F)[C@@H]2COCCN12 [baloxavir acid]
[3]
  C24 of a simulated dose: 78.3 ng/mL
[3]; 20 mg/kg
  C24 (plasma concentration at 24 h): 47.4 ± 4.9 ng/mL
[3]; 30 mg/kg
  C24 (plasma concentration at 24 h): 70.8 ± 13.9 ng/mL
[4]
  EC50: 1.13 nM
[5]
  Lung virus titer: almost to the LLOQ
[6]; 10 mg/kg
  C24 (plasma concentration at 24 h): 17.3 ± 3.3 ng/mL
[6]; 30 mg/kg
  C24 (plasma concentration at 24 h): 45.7 ± 19.7 ng/mL
[7]
  EC50: 0.61 nM
[8]
  EC50: 0.42 nM

## CCOC(=O)C1=C[C@@H](OC(CC)CC)[C@H](NC(C)=O)[C@@H](N)C1 [oseltamivir phosphate]
[5]
  Lung virus titers vs vehicle: statistically lower compared with vehicle

Reference: PMC10222987 (Viruses, 2023)
